The record followed here is the NIST ThermoML archive (doi:10.1016/j.jct.2006.05.001).

± gives the expanded uncertainty stated by the source.

The conditions of series [1]: Liquid; for mass density: 101.33 kPa; for Normal boiling temperature: Distillation.
A short description of series [2]: refractive index (Na D-line) (dimensionless). To be noted: 293.15 K; 101.33 kPa; Liquid; Standard Abbe refractometry.

With `CCC(=O)O` [propanoic acid], the mass density in series [1] (298.15 K) turned out to be 988.04 ± 0.53 kg/m3. The Normal boiling temperature in series [1] is 141.4 ± 0.5 °C. For the same molecule, the refractive index in series [2] was 1.3808 ± 0.0008.

As for `CCCCCCCCCCO` [decan-1-ol], the mass density in series [1] (293.15 K) was 829.5 ± 0.94 kg/m3. The Normal boiling temperature in series [1] was 230.6 ± 0.5 °C. In series [2], the refractive index is 1.4373 ± 0.0008.

`CCCCCCCCCO` [nonan-1-ol]: the mass density in series [1] (293.15 K) was 828.5 ± 1.7 kg/m3. Further, in series [1], the Normal boiling temperature came to 215.2 ± 0.5 °C. In addition, the refractive index in series [2] worked out at 1.4335 ± 0.0008.

Consider `CCCCCCCCO` [octan-1-ol], for which the mass density in series [1] (298.15 K) stood at 826.25 ± 0.95 kg/m3. In series [1], the Normal boiling temperature is 195 ± 0.5 °C. In addition, in series [2], the refractive index worked out at 1.4292 ± 0.0008.

As for `CCCCCCCCCCCCO` [dodecan-1-ol], the mass density in series [1] (297.15 K) is recorded as 830.8 ± 1.5 kg/m3. In addition, the Normal boiling temperature in series [1] stood at 259.4 ± 0.5 °C.

As usually defined, the mass density is mass per unit of volume. The refractive index is the speed of light in vacuum divided by its phase velocity in the sample.
